PMC9551036, “A selective and orally bioavailable VHL-recruiting PROTAC achieves SMARCA2 degradation in vivo” (Nature Communications, 2022)
Converted amounts (≈) assume the structure as drawn. “And” between values parts separate entries of the source, which are not always exact repeats. Equal values may be shown once. Read-outs that look alike come from different tables or passages of the source.

Tests used:
[1] = test system: VCB: PROTAC: SMARCA4^BD ternary complex; experiment: TR-FRET ternary complex affinity and cooperativity, SMARCA4; type: binding, human; settings: ratio TR-FRET EC50 / TR-FRET EC50 +VCB measured in the same run, SMARCA4BD
Caco-2 cell monolayer = experiment: Bidirectional permeability measurement in Caco-2 cells; type: in vitro ADME; settings: for Modified Caco-2 Pab + PGPi (Zosuquidar): Modified Caco-2, a to b
In short: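 Caco-2 monolayers grown 14–21 days, preincubated 24 h with medium containing 1 µM compound; bidirectional transport sampled up to 2 h, quantified by LC-MS/MS, ± 5 µM zosuquidar (P-gp inhibitor). Papp,AB and Papp,BA from receiver amount, donor C0, area and time; efflux ratio = Papp,BA/Papp,AB (duplicate means). TEER checked per plate.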

[2] = target: VCB: PROTAC: SMARCA2^BD ternary complex (Homo sapiens, UniProt P40337+P51531); experiment: SPR ternary complex measurement, VCB immobilised, 10 µM SMARCA2^BD present; type: binding; design: P51531-2, residues 1373-1493 with additional N-terminal SM residues; His6 (TEV site) (N, cleaved yes); GST (TEV site) (N, cleaved yes); made in house; host or cells: SMARCA2^BD: Escherichia coli BL21(DE3); settings: for Kd: SPR; for alpha: cooperativity, SMARCA2, ratio of KD values measured in the same run
Chain of VCB: PROTAC: SMARCA2^BD ternary complex (P40337 54-213): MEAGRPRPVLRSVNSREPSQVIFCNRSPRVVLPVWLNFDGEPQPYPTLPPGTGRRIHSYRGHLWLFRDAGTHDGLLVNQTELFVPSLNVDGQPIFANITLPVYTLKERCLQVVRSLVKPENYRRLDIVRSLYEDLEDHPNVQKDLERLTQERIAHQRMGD
Chain of VCB: PROTAC: SMARCA2^BD ternary complex (Q15369 17-112 partner limits assumed): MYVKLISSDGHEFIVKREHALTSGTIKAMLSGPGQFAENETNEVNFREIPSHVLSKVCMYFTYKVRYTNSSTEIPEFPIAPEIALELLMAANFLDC
Chain of VCB: PROTAC: SMARCA2^BD ternary complex (Q15370 1-104 partner limits assumed): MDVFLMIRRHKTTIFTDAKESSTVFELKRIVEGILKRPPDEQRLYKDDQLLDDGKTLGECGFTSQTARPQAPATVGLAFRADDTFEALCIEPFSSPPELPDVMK
Chain of VCB: PROTAC: SMARCA2^BD ternary complex (P51531 1373-1493 isoform P51531-2): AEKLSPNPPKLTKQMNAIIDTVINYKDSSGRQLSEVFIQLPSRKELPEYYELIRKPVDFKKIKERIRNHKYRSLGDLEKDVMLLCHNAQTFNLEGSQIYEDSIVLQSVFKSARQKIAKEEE
Procedure: (§1) SPR data were acquired on Biacore 8K or T200 instruments (Cytiva). Target proteins were immobilised at 25 °C on CM5 chips by amine coupling (EDC/NHS, Cytiva) in HBS-P+ running buffer (pH 7.4), containing 2 mM TCEP. […] The reference surface was subsequently deactivated using 1 M ethanolamine. […] Biotinylated VCB was prepared as previously described[27]: in brief, the complex was mixed 1:1 with EZ-Link NHS–PEG4–biotin (Thermo Scientific) and incubated at room temperature for 1 h. Unreacted NHS-biotin was removed using a PD-10 desalting column (Cytiva) into 20 mM HEPES, pH 7.5, 150 mM sodium chloride and 1 mM DTT. The reference surface was generated by deactivating the EDC/NHS-treated surface with 1 M ethanolamine. All interaction experiments were done at 6 °C in running buffer (20 mM TRIS, pH 8.3, 150 mM potassium chloride, 2 mM magnesium chloride, 2 mM TCEP, 0.005% TWEEN 20, 1% dimethyl sulfoxide). For ternary complex measurements, a sensor chip surface with VCB immobilised was used (preparation as described above). Experiments were run in dual-inject mode with 10 µM SMARCA present during the injection and dissociation phase. Sensorgrams from reference surfaces and blank injections were subtracted from the raw data prior to data analysis using Biacore Insight software. Affinity and binding kinetic parameters were determined by global fitting using the 1:1 interaction model with a term for mass-transport included.

[3] = target: VCB: PROTAC: SMARCA4^BD ternary complex (Homo sapiens, UniProt P40337+P51532); experiment: SPR ternary complex measurement, VCB immobilised, 10 µM SMARCA4^BD present; type: binding; design: P51532, residues 1448–1569 with additional N-terminal SM residues; His6 (TEV site) (N, cleaved yes); GST (TEV site) (N, cleaved yes); made in house; host or cells: SMARCA4^BD: Escherichia coli BL21(DE3); settings: for Kd: SPR; for alpha: cooperativity, SMARCA4, ratio of KD values measured in the same run
Chain of VCB: PROTAC: SMARCA4^BD ternary complex (Homo sapiens, UniProt P40337+P51532) (P40337 54-213): as the sequence (P40337 54-213) above
Chain of VCB: PROTAC: SMARCA4^BD ternary complex (Homo sapiens, UniProt P40337+P51532) (Q15369 17-112 partner limits assumed): as the sequence (Q15369 17-112 partner limits assumed) above
Chain of VCB: PROTAC: SMARCA4^BD ternary complex (Homo sapiens, UniProt P40337+P51532) (Q15370 1-104 partner limits assumed): as the sequence (Q15370 1-104 partner limits assumed) above
Chain of VCB: PROTAC: SMARCA4^BD ternary complex (Homo sapiens, UniProt P40337+P51532) (P51532 1448-1569): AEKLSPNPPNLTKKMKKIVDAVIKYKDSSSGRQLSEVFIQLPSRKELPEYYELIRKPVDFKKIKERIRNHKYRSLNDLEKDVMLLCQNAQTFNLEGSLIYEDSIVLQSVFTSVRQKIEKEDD
Procedure: as §1

Solubility testing = type: physicochemical; settings: for solubility at 24 h: buffer, kinetic from dmso stock
Procedure: Dilution into a 1:1 mixture of acetonitrile and water was used as reference. After 24 h, the incubations were filtrated, and the filtrate was analyzed by LC-UV.

Microsomal stability = type: in vitro ADME; settings: for Mic. Stab. Human / Mic. Stab. Human QH: human liver microsomes; for Mic. Stab. Mouse / Mic. Stab. Mouse QH: mouse liver microsomes; for Mic. Stab. Rat / Mic. Stab. Rat QH: rat liver microsomes
Procedure: […] Reactions were terminated by addition of acetonitrile and precipitates separated by centrifugation. Compound concentrations in supernatants were measured by HPLC-MS/MS and clearance was calculated from compound half-lives using the well-stirred liver model.

[4] = ternary complex with SMARCA2BD, mean ± SD
[5] = ternary complex with SMARCA4BD, mean ± SD
[6] = pH 4.5, aqueous buffer, pH 4.5, read-out: Solubility pH 4.5
[7] = pH 6.8, aqueous buffer, pH 6.8, read-out: Solubility pH 6.8

| SMILES | cooperativity α (SMARCA4BD) [1] | Caco-2 Pab (Caco-2 cell monolayer; Caco-2, a to b) [cm/s] | Kd [2, 4] [nM] | Kd ([2]; ternary, individual replicates) | alpha [2] | Kd [3, 5] [nM] | Kd ([3]; ternary, individual replicates) | alpha [3] | solubility at 24 h (Solubility testing; [6]) [µg/mL] | solubility at 24 h (Solubility testing; [7]) [µg/mL] | Mic. Stab. Human (Microsomal stability) [% QH] | Mic. Stab. Human QH (Microsomal stability) | Mic. Stab. Mouse (Microsomal stability) [% QH] | Mic. Stab. Mouse QH (Microsomal stability) | Mic. Stab. Rat (Microsomal stability) [% QH] | Mic. Stab. Rat QH (Microsomal stability) | Caco-2 Pab (Caco-2 cell monolayer; Caco-2) | Solubility pH 6.8 (Solubility testing; pH 6.8) | Solubility pH 4.5 (Solubility testing; pH 4.5) | Caco-2 Efflux ratio (Caco-2 cell monolayer; Caco-2) | other results |
| --- | --- | --- | --- | --- | --- | --- | --- | --- | --- | --- | --- | --- | --- | --- | --- | --- | --- | --- | --- | --- | --- |
| Cc1ncsc1-c1ccc([C@H](COCCN2CCC(c3ccc4c(c3)n(C3CCCC3)c3nc(=O)c5c(Br)cccc5n43)CC2)NC(=O)[C@@H]2C[C@@H](O)CN2C(=O)[C@@H](NC(=O)C2(N(C)C)CC2)C(C)(C)C)cc1 [compound 26] | 2.6 ± 0.7 | <2.7e-06 | 95 ± 37 | 64.1 nM and 136 nM and 86.3 nM | 0.8 | 116 ± 16 | 105 nM and 109 nM and 135 nM | 0.7 | 200 (≈ 188 µM) | < 1 | 86 ± 0.3 | 86.500% and 86.000% and 86.480% | >88 | > 88.400% and 90.900% | 58 ± 3 | 60.400% and 54.700% and 57.700% |  |  |  |  |  |
| Cc1ncsc1-c1ccc([C@H](COC(C)(C)CN2CCC(c3ccc4c(c3)n(C3CCCC3)c3nc(=O)c5c(Br)cccc5n43)CC2)NC(=O)[C@@H]2C[C@@H](O)CN2C(=O)[C@@H](NC(=O)C2(F)CC2)C(C)(C)C)cc1 [compound 28] | 3.2 ± 0.7 |  | 120 ± 34 | 82.7 nM and 149 nM and 127 nM | 0.5 | 73 ± 13 | 63.4 nM and 67.4 nM and 86.9 nM | 0.8 |  |  | 57 ± 4 | 51.200% and 55.600% and 59.900% and 60.900% | <24 | < 24.200% and 25.800% | <23 | < 23.100% and 29.700% | 5 ± 2 10-6 cm/s | <1.000 <1.000 <1.000 <1.000 <1.000 ug/mL |  |  | Modified Caco-2 Efflux ratio (Caco-2 cell monolayer; Modified Caco-2): 37.037 and >37; Modified Caco-2 Pab (Caco-2 cell monolayer; Modified Caco-2): <7 10-6 cm/s; Modified Caco-2 Pab + PGPi (Zosuquidar) (Caco-2 cell monolayer): 11 ×10⁻⁶ cm/s and 13 ×10⁻⁶ cm/s; Modified Caco-2 Pba + PGPi (Zosuquidar) (Caco-2 cell monolayer; Modified Caco-2, b to a): 14 ×10⁻⁶ cm/s |
| Cc1ncsc1-c1ccc(CNC(=O)[C@@H]2C[C@@H](O)CN2C(=O)[C@@H](NC(=O)C2(F)CC2)C(C)(C)C)c(OCCOCCOCCN2CCC(c3ccc4c(c3)n(C3CCCC3)c3nc(=O)c5c(Br)cccc5n43)CC2)c1 [compound 21] | 4.0 ± 0.2 | <2.83e-07 | 58 ± 8 | 49 nM and 65.4 nM and 58.3 nM | 0.4 | 16 ± 11 | 28 nM and 7.74 nM and 13 nM | 1.3 |  |  | 87 ± 10 | 92.470% and 92.660% and 75.300% | 56 ± 10 | 62.650% and 61.360% and 44.780% | 45 ± 13 | 57.680% and 45.850% and 32.500% | <0.3 10-6 cm/s |  | 200.000 ug/mL and 180.000 ug/mL and 190.000 ug/mL |  |  |
| Cc1ncsc1-c1ccc([C@H](CCCCCN2CCC(c3ccc4c(c3)n(C3CCCC3)c3nc(=O)c5c(Br)cccc5n43)CC2)NC(=O)[C@@H]2C[C@@H](O)CN2C(=O)[C@@H](NC(=O)C2(F)CC2)C(C)(C)C)cc1 [compound 11] | 4.2 ± 0.4 |  | 37 ± 12 | 45.4 nM and 28.1 nM | 0.3 | 18 ± 2 | 16.7 nM and 16.3 nM and 19.3 nM | 0.6 | < 1 | < 1 | <24 | <24.400 <24.400 <24.400 <24.400% | <24 | <24.200 <24.200 <24.200 <24.200 <24.200 <24.200 <24.200 <24.200% | <23 | <23.100 <23.100 <23.100 <23.100 <23.100 <23.100 <23.100 <23.100% |  |  |  |  | Caco-2 permeability (Caco-2 cell monolayer): improved permeability; efflux ratio (Caco-2 cell monolayer; Caco-2): high efflux ratio; Modified Caco-2 + PGPi (Zosuquidar) Pab (Caco-2 cell monolayer; Modified Caco-2 + PGPi (Zosuquidar)): 11 ± 3 10-6 cm/s; Modified Caco-2 Pab + PGPi (Zosuquidar) (Caco-2 cell monolayer): 12 ×10⁻⁶ cm/s and 16 ×10⁻⁶ cm/s and 9 ×10⁻⁶ cm/s and 8.7 ×10⁻⁶ cm/s; Modified Caco-2 Pba + PGPi (Zosuquidar) (Caco-2 cell monolayer; Modified Caco-2, b to a): 19 ×10⁻⁶ cm/s; solubility (Solubility testing): moderate solubility; microsomal stability (Microsomal stability): good microsomal stability |
| Cc1ncsc1-c1ccc([C@H](COC(C)CN2CCC(c3ccc4c(c3)n(C3CCCC3)c3nc(=O)c5c(Br)cccc5n43)CC2)NC(=O)[C@@H]2C[C@@H](O)CN2C(=O)[C@@H](NC(=O)C2(N(C)C)CC2)C(C)(C)C)cc1 (stereo partly drawn) [compound 10] | 2.6 ± 0.8 |  | 159 ± 80 | 74 nM and 233 nM and 171 nM | 0.8 | 172 ± 115 | 305 nM and 102 nM and 109 nM | 0.7 | 210 (≈ 195 µM) | < 1 | 86 | 85.500% | 68 ± 2 | 66.900% and 69.700% | 51 ± 2 | 49.700% and 52.900% | 6 10-6 cm/s | 2.000 ug/mL |  | 5 | Caco-2 Pba (Caco-2 cell monolayer; Caco-2, b to a): 21 ×10⁻⁶ cm/s; Modified Caco-2 Efflux ratio (Caco-2 cell monolayer; Modified Caco-2): 36; Modified Caco-2 Pba (Caco-2 cell monolayer; Modified Caco-2, b to a): 99 ×10⁻⁶ cm/s and 88 ×10⁻⁶ cm/s |
| Cc1ncsc1-c1ccc(CNC(=O)[C@@H]2C[C@@H](O)CN2C(=O)[C@@H](NC(=O)C2(F)CC2)C(C)(C)C)c(OCCCCN2CCC(c3ccc4c(c3)n(C3CCCC3)c3nc(=O)c5c(Br)cccc5n43)CC2)c1 [compound 23] | 0.9 ± 0.1 | 4.01e-07 | 120 ± 8 | 116 nM (2×) and 129 nM | 0.1 | 84 ± 1 | 84.3 nM and 82.7 nM and 85 nM | 0.2 |  |  | 78 | 78.440% | 42 | 42.090% | <23 | <23.080% | 0.4 10-6 cm/s | <1.000 ug/mL | <1.000 ug/mL | 26.136 and 26 |  |
| Cc1ncsc1-c1ccc([C@H](COCCCN2CCC(c3ccc4c(c3)n(C3CCCC3)c3nc(=O)c5c(Br)cccc5n43)CC2)NC(=O)[C@@H]2C[C@@H](O)CN2C(=O)[C@@H](NC(=O)C2(F)CC2)C(C)(C)C)cc1 [compound 27] | 2.8 ± 0.5 |  | 26 | 26.7 nM and 25.9 nM and 26.4 nM | 0.5 | 18 ± 1 | 16.7 nM and 17.5 nM and 19.5 nM | 0.7 |  |  | 43 ± 5 | 46.200% and 38.900% | <25 | 24.700% and < 24.200% | <23 | <23.100 <23.100% | 5 10-6 cm/s | <1.000 <1.000 ug/mL | <1.000 <1.000 ug/mL | 4.167 and 4 |  |
